Assay results as given in a melting point compilation (Tetko et al.; mined from patent text by program, amines drawn as free bases though some values may be those of a salt).

Compound `C[C@H](NC(=O)c1c[nH]c2ncc(-c3cnn(C)c3)nc12)C(C)(C)C` has a melting point of 296 to 297 °C. `CC(=O)Nc1ccc(S(=O)(=O)Nc2onc(C)c2Br)cc1` showed a melting point of 208 to 210 °C. Work on `COC(=O)/C=C/c1ccc2c(c1)C(C)(C)CC(=O)N2` yielded a melting point of 174 to 175 °C. In the case of `COC(=O)C1=C(C)NC(CO)=C(C(=O)OC)C1c1cccc([N+](=O)[O-])c1` (centres undefined), the melting point is reported as 145 to 146 °C. Work on `CNC=C1C(=S)C(C)(C)OC1(C)C` yielded a melting point of 115 to 117 °C. With `Cc1ccc2[nH]c(=O)n(CCCN3CCC(C(=O)c4ccc(F)cc4)CC3)c2c1` the melting point was 150 °C. In the case of `CS(=O)(=O)OCCCCC1C(=O)Nc2ccc(F)cc21` (centres undefined), the melting point is reported as 106 to 108 °C. Work on `COCC(=O)c1c(Cl)ccc(F)c1Cl` yielded a melting point of 36.7 to 39.4 °C. With `Nc1n[nH]c2cc(C(=O)C=NO)ccc12` the melting point was 199 to 201 °C. With `CCOC(=O)c1cn(Cc2ccc(Oc3ccccc3)cc2)nc1O` the melting point was 117 to 118 °C. Compound `CN(CCCCP(=O)(O)O)S(=O)(=O)C(F)(F)C(F)(F)C(F)(F)C(F)(F)C(F)(F)C(F)(F)C(F)(F)C(F)(F)F` has a melting point of 150 to 163 °C. Compound `CCOC(=O)c1c(C(C)C)c2ccccn2c1-c1ccc(F)cc1` has a melting point of 51 to 52 °C. `COc1cccc2c1CN(c1c(F)cc3c(=O)c(C(=O)O)cn(-c4ccc(F)cc4F)c3c1F)C2` showed a melting point of 262 to 271 °C. `N#Cc1ccc(N(Cc2ccc(OS(N)(=O)=O)cc2)n2cnnc2)cc1-c1ccc(C(F)(F)F)cc1` showed a melting point of 177 to 180 °C. `CCOC(=O)c1cn(C2CC2)c2c(C)c(N3CCN(Cc4ccccc4)C(C)C3)c(F)c(C)c2c1=O` (centres undefined) showed a melting point of 128 to 129 °C. `NC(=O)c1nccc(Oc2ccc(N)cc2F)c1Cl` gave a melting point of 217 to 218 °C. With `Cc1ccnc(NC(=O)c2c(-c3ccc(F)cc3)c(-c3ccc(F)cc3)c(C=O)n2C(C)C)n1` the melting point was 173 to 175 °C. `CCOC(=O)c1c[nH]c2ccc(OC3CCN(C)CC3)nc12` gave a melting point of 232 °C. Work on `Cc1cc(-n2cnnc2)cc2ccc(=O)[nH]c12` yielded a melting point of 369 to 371 °C. `CC(C)(C)c1ccc(C(=O)Nc2cn3nc(NCc4ccncc4)ccc3n2)cc1` gave a melting point of 222 to 223 °C. With `COc1cc(C=C2CCCOC2CN)c([N+](=O)[O-])cc1OC` (centres undefined) the melting point was 89 to 96 °C. With `Nc1cnc2ccc(-c3ccccc3)cc2c1Nc1ccccc1Br` the melting point was 174 to 177 °C. Work on `OCCCc1cc(Cl)cc2nc(Cc3cccc(Cl)c3)oc12` yielded a melting point of 87 to 89 °C. With `CC(C)(C)C1=NN(c2ccc(C(=O)O)cc2)C(c2ccccc2)C1` (centres undefined) the melting point was 233 °C. Work on `NC(=O)N1CCC(c2nn(-c3ccc(C(F)(F)F)cc3)c3ccc(F)cc23)CC1` yielded a melting point of 172 to 174 °C. `CC(C)(C)OC(=O)N1CC(CO)c2c1cc(OCc1ccccc1)c1ncccc21` (centres undefined) showed a melting point of 170 to 171 °C. In the case of `N#Cc1nn(-c2c(Cl)cc(C(F)(F)F)cc2Cl)cc1C=C(F)F`, the melting point is reported as 75 to 77 °C. Compound `CCCCCCCCCCc1cnc(-c2ccc(OCC(C)(C#N)CCCC)cc2)nc1` (centres undefined) has a melting point of 43 °C. Work on `COc1ccc2c(c1)cc(-c1ccccc1)n2-c1ccc(O)cc1` yielded a melting point of 200 to 201 °C. Compound `CN(CCO)c1nc(-c2ccc(Cl)c(C(=O)NCC34CC5CC(CC(C5)C3)C4)c2)ccc1C(=O)O` has a melting point of 121 to 124 °C. In the case of `COc1cc2c(cc1OC)C1(CCC(C(=O)O)(C(=O)O)CC1)N(C(=O)OCc1ccccc1)CC2`, the melting point is reported as 181 to 182 °C. Work on `CN1C(=O)N(c2cc(Cl)cc(Cl)c2)C(=O)[C@]12CN(C1CC1)C[C@H]2c1ccc(C#N)cc1` (relative stereo) yielded a melting point of 216 °C. In the case of `COc1ccc(-c2nc(SCCCCCc3nc4ccccc4[nH]3)[nH]c2-c2ccc(OC)cc2)cc1`, the melting point is reported as 85 to 86 °C. Work on `CCc1cn(C)c(C2Cc3ccccc3N2C(C)=O)n1` (centres undefined) yielded a melting point of 105 to 106 °C. Compound `CCc1cn(C2CC(O)C(CNC(=O)Cc3ccccc3Br)O2)c(=O)nc1N` (centres undefined) has a melting point of 236 to 237 °C. For `CCCc1c(OCCCC(=O)NCCCc2cccnc2)ccc(C(C)=O)c1O`, the melting point was 97 to 98 °C. Compound `CCCNCCc1ccc(NS(=O)(=O)c2ccc(Cl)cc2Cl)cc1` has a melting point of 165 to 168 °C. With `CC(C)Oc1ccc(C(=O)n2nc(Nc3cccc(N4CCCCC4)c3)nc2N)cc1` the melting point was 121 to 124 °C. `CCCCc1c2c(nc3ccccc13)-c1cc3c(c(=O)n1C2)COC(=O)CC3(O)CC` (centres undefined) gave a melting point of 220 to 221 °C. Compound `CNc1nc(Cl)nc2c1ncn2C1CC(O)C(CO)O1` (centres undefined) has a melting point of 163 to 165 °C. For `CC(C)(COc1ncc(C(F)(F)F)cc1Cl)C(=O)C(Oc1ccc(F)cc1)n1cncn1` (centres undefined), the melting point was 104 to 106 °C. `Cn1nc(-c2ccc3c(c2)CCN(C2CCC2)CC3)ccc1=O` showed a melting point of 287 to 288 °C. With `CC1(C)C2CCC1(CCCC(=O)O)CC2` the melting point was 72 to 73 °C. For `CCOc1cc(Cc2cnc(N)nc2N)cc2c1OC(C)(C)C=C2C#CC(C)O` (centres undefined), the melting point was 218 to 219 °C. With `N#COc1ccc(C=CC(=O)c2ccc(OC#N)cc2)cc1` the melting point was 171 to 173 °C. For `O=C(Cc1c(-c2ccccc2)c2cc(CN3CCN(c4ccccc4)CC3)c(Cl)cc2oc1=O)Nc1ccc(Cl)cc1C(F)(F)F`, the melting point was 201 to 203 °C. For `CC1(N)CN(c2c(F)cc3c(=O)c(C(=O)O)cn(-c4ccc(F)cc4F)c3c2F)C1`, the melting point was 185 to 186 °C. `CCOC(=O)c1nc(-c2cccc(Cl)c2)c(-c2ccc(=O)n(C(C)C)n2)s1` showed a melting point of 134 to 136 °C. Compound `CC(C)n1cc(-c2c(-c3ccccc3)nn3ccncc23)ccc1=O` has a melting point of 196 to 197 °C. With `CON(C)C(=O)Nc1nnc(SCc2cccnc2)s1` the melting point was 142 to 144 °C. For `Cc1ccccc1CCc1c(C(C)C)nc(C(C)C)c(CO)c1-c1ccc(F)cc1`, the melting point was 125 to 126 °C. Compound `COc1ccc(Nc2nc3cc4c(cc3[nH]2)C(C)(C)CC(=O)N4)cc1` has a melting point of 283 to 287 °C. With `Cn1c(C(F)(F)F)cc(=O)n(-c2c(O)cc(Cl)cc2F)c1=O` the melting point was 143 to 144 °C. Compound `N[C@@H](CC(C(=O)O)=C1CCC1)C(=O)O` has a melting point of 212 to 214 °C. With `Cc1cccc(C)c1NNC(=O)OCCCl` the melting point was 74 to 75 °C. In the case of `COc1cccc2c(Nc3ccccc3C)c(C(=O)C(C)C)cnc12`, the melting point is reported as 116 to 118 °C. For `CSc1ccc(CC(NC(=O)OCc2ccccc2)C(O)C#N)cc1` (centres undefined), the melting point was 123 to 125 °C. For `O=c1c2c(c3cccnc3n1-c1ccccc1)OC(CO)C2` (centres undefined), the melting point was 267 to 268 °C. In the case of `CCC(C(=O)O)c1ccc(C(CC)C(=O)O)cc1` (centres undefined), the melting point is reported as 198 to 202 °C. Compound `CC(C)(C)OC(=O)NCc1ccc(-n2c(-c3cccnc3N)nc3ccc(-c4cn[nH]c4)nc32)cc1` has a melting point of 243 to 244 °C. `CCCOc1ccccc1C(=O)Nc1cc(SC)ccc1C(N)=O` showed a melting point of 178 to 181 °C. With `Cn1c2c(c(=O)n(-c3cc(C(=O)O)c(Cl)cc3F)c1=O)CCC2` the melting point was 270 to 273 °C. `CC(C)c1ccc2ccc(N)nc2n1` gave a melting point of 158 to 160 °C. Work on `Cc1nc(Sc2cccc(C(=O)O)n2)sc1CC(=O)O` yielded a melting point of 211 to 213 °C. `Cc1cc(C2=NN=C(C=NNC(N)=O)Cc3cc4c(cc32)OCO4)ccc1[N+](=O)[O-]` gave a melting point of 260 to 264 °C. In the case of `O=C(O)c1ccc2oc3c(c(=O)c2c1)CCCC3`, the melting point is reported as 253 to 255 °C. With `CCCc1nc2cnc3cccnc3c2n1CC1(O)CCOC1` (centres undefined) the melting point was 151 to 152 °C. `COC1=CC=C2C3Cc4ccc(O)c5c4C2(CCN3C)C1O5` (centres undefined) showed a melting point of 114 to 116 °C. In the case of `CC(C)(c1cc(F)cc([N+](=O)[O-])c1O)c1cc(Cl)cc([N+](=O)[O-])c1O`, the melting point is reported as 160 °C. Work on `O=C1Cc2cc(Oc3ccccc3Cl)ccc2N1` yielded a melting point of 139 to 140 °C. With `Cc1ccc(OC(=O)N2CCC[C@H]2C(=O)O)cc1` the melting point was 76 to 77 °C. `N#CC1(N2C(=O)c3cccc(Cl)c3C2=O)CCCCC1` gave a melting point of 115 to 116 °C. For `OCC1OC(Sc2ccccc2)C(OCc2ccccc2)C(OCc2ccccc2)C1OCc1ccccc1` (centres undefined), the melting point was 127 to 129 °C. For `O=C(O)Cc1c(C(=O)c2ccc(Cl)cn2)[nH]c2cc(Cl)ccc12`, the melting point was 242 to 244 °C. Compound `CC1(C)OCc2cc(CCNC(=O)C(F)(F)F)ccc2O1` has a melting point of 91 to 93 °C. Compound `CC(C)NC(=O)N1C(=O)Cc2ccccc21` has a melting point of 84 to 85.5 °C. For `Cn1ncc(/C=C/C(=O)Nc2ccc3[nH]c(=O)oc3c2)c1-c1ccc(F)cc1`, the melting point was > 300 °C. In the case of `CC(C)(C)OC(=O)CCNC1(c2ccccc2Cl)C(=O)Nc2ccc(Cl)cc21` (centres undefined), the melting point is reported as 188 °C. Compound `CCC1c2cc(F)ccc2-c2ccccc2N1S(=O)(=O)c1ccc(OC(=O)CC(C)(C)C)cc1` (centres undefined) has a melting point of 128 °C. Work on `CCCCN(CCCCCCCCSc1nc(-c2ccccc2)c(-c2ccccc2)[nH]1)C(=O)Nc1ccc(F)cc1F` yielded a melting point of 114 to 115 °C. `CC1CCN(Cc2cc(COc3cccc4c3CN(C3CCC(=O)NC3=O)C4=O)on2)CC1` (centres undefined) showed a melting point of 168 to 170 °C. With `O=S(=O)(c1ccc(S(=O)(=O)C2CCCCC2)nc1)C1CCCCC1` the melting point was 213 °C. `O=C1Cc2c(ccc3c(CCC4CCN(Cc5ccccc5)CC4)noc23)N1` gave a melting point of 188 to 189 °C. `CC(C)(CNC(=O)Cc1cnc[nH]1)c1ccc(C(=O)Nc2cn3cc(C(F)(F)F)ccc3n2)cc1` gave a melting point of 261 to 263 °C. `Cc1cc2nc(Cl)c(Cl)nc2c([N+](=O)[O-])c1Cl` showed a melting point of 121 to 122 °C. With `COc1cc2c(=O)n(CCCN3CCOCC3)c3c4ccccc4[nH]c(=O)c3c2cc1OC` the melting point was 250 to 252 °C. For `CCCCCCN(CCCC(=O)Nc1c(SC)nc(C)nc1N(CC)CC)c1ccc(Br)cc1`, the melting point was 89.8 to 93 °C. For `O=C1NCC=Cc2c1[nH]c(Br)c2Br`, the melting point was 170 to 175 °C. `CCOC(=O)c1nc[nH]c1F` showed a melting point of 153 to 154 °C. Compound `O=C(Cc1ccsc1)Nc1ccc(Br)cn1` has a melting point of 117 °C. For `Cc1sc2nc(-c3ccccc3)c(-c3ccc(S(C)(=O)=O)cc3)n2c1C`, the melting point was 193 to 194 °C. `N#CNC(=Nc1ccncc1)NCCOc1ccc(Cl)cc1` gave a melting point of 174 to 177 °C. With `COc1cc2c(cc1Nc1ncc(Cl)c(N[C@H]3[C@@H](C(N)=O)[C@@H]4C=C[C@H]3C4)n1)NCCN(CC1CC1)C2` the melting point was 149 to 151 °C. In the case of `Cc1oc2cc(C=O)ccc2c1C`, the melting point is reported as 73 to 74 °C. Compound `CNc1cc(F)ccc1C(=O)CS(C)(=O)=O` has a melting point of 144 to 145 °C. Work on `O=C(Nc1ccccc1)Nc1cccc(-c2ccc(CC3SC(=O)NC3=O)cc2)c1` (centres undefined) yielded a melting point of 185 °C. With `Cc1ccc(N2CC(=O)N(C)C(=O)N2)cc1` the melting point was 193 to 194 °C. `COc1cc(S(=O)(=O)c2ccncc2)ccc1[N+](=O)[O-]` showed a melting point of 123 to 124 °C. Compound `CCNC(=O)N(C)Cc1cccc2c1C(=O)N(C1CCC(=O)NC1=O)C2=O` (centres undefined) has a melting point of 219 to 221 °C.
